In brackets after ≈: the same amount, converted by molar mass. One block for each compound: values may come before it.
Tests used:
MCF7 [1] = test: Antiproliferative activity against human MCF7 cells assessed as inhibition of cell growth measured after 72 hrs by fluorescence based assay; type: functional; conditions: MCF7, 72 h
K562 = test: Antiproliferative activity against human K562 cells assessed as inhibition of cell growth measured after 72 hrs by fluorescence based assay; type: functional; conditions: K562, 72 h
[2] = target: Cyclin-dependent kinase 2/cyclin E (Homo sapiens, UniProt P24941); test: Inhibition of CDK2/cyclin E (unknown origin); type: protein-complex assay
[3] = target: T1, Tyrosine-protein kinase JAK3 (Homo sapiens, UniProt P52333); test: Inhibition of JAK3 (unknown origin)
T1 sequence (P52333 whole entry): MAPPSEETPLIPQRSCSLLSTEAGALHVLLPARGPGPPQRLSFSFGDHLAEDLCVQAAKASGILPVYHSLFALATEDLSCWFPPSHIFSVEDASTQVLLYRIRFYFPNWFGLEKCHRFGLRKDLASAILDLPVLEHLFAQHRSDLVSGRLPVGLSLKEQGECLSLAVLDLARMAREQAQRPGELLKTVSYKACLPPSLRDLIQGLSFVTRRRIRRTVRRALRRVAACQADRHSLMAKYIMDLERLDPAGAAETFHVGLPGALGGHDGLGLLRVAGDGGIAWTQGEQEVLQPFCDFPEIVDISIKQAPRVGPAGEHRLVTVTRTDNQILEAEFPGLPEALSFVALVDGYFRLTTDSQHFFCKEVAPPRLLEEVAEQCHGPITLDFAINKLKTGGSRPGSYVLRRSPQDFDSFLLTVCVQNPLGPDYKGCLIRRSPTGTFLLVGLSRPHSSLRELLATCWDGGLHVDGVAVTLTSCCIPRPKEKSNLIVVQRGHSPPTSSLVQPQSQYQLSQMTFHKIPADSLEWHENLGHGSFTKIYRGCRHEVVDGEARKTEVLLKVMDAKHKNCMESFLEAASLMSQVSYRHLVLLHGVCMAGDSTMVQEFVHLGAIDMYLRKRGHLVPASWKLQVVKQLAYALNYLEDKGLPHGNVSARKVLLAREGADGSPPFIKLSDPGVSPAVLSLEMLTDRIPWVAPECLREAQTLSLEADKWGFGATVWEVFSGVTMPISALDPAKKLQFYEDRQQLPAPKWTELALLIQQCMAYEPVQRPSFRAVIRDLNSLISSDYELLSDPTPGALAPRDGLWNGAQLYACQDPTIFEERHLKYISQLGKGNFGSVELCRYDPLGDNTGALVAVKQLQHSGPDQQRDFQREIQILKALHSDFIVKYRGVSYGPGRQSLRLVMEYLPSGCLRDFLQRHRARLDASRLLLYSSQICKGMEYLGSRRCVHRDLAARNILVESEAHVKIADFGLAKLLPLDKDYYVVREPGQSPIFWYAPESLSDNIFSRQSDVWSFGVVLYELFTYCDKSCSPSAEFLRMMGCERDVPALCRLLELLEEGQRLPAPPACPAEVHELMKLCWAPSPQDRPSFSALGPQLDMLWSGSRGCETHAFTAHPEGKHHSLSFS

[4] = target: Tyrosine-protein kinase JAK2 (Homo sapiens, UniProt O60674); test: Inhibition of JAK2 (unknown origin)
MCF7 [5] = test: Antiproliferative activity against human MCF7 cells assessed as inhibition of cell growth; type: functional, cell-based
HCT-116 = test: Antiproliferative activity against human HCT-116 cells assessed as inhibition of cell growth; type: functional, cell-based
[6] = target: Cyclin-dependent kinase 2/cyclin E1 (Homo sapiens, UniProt P24941); test: Inhibition of CDK2/cyclin E1 (unknown origin) expressed in Sf9 cells

Chain of Tyrosine-protein kinase JAK2 (O60674 whole entry): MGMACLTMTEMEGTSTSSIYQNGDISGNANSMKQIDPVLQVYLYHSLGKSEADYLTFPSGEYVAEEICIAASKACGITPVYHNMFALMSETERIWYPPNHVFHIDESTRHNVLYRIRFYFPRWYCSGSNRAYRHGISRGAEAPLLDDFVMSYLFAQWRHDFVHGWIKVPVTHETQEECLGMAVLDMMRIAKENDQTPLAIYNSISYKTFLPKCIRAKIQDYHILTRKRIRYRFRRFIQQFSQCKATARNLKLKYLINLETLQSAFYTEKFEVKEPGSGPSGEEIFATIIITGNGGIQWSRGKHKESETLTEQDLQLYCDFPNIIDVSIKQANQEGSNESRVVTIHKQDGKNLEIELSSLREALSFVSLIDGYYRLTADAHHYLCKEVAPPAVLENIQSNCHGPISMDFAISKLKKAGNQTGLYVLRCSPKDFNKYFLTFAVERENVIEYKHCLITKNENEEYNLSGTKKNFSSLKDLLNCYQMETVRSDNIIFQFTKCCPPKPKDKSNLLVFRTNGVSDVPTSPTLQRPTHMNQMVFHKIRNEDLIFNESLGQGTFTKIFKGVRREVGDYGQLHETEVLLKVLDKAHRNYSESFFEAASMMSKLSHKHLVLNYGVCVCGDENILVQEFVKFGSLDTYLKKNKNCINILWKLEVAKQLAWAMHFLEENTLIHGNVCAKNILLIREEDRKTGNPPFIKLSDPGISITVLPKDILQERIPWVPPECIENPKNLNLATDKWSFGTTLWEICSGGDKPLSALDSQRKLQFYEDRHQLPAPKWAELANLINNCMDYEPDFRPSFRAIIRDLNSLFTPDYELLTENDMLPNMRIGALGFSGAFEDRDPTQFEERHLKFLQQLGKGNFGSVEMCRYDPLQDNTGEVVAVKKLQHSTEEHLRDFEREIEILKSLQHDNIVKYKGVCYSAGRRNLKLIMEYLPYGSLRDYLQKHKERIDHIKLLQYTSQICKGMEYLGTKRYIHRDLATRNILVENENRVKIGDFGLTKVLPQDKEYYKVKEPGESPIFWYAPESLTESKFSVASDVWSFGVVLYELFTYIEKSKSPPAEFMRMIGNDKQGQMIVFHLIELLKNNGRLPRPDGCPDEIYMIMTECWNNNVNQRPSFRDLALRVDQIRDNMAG

SMILES: O=c1nc(NC2CCCCC2)c(-c2ccccc2O)nn1-c1ccccc1
- IC50 (MCF7 [1]): 3.5 µM
- IC50 (K562): 3.5 µM

SMILES: COc1cc(Cc2nc(-c3ccc(Cl)cc3)nn3c(=S)[nH]nc23)cc(OC)c1OC
- IC50 (MCF7 [5]): 0.74 µg/mL (≈ 1.67 µM)
- IC50 (HCT-116): 0.74 µg/mL

SMILES: O=c1nc(Nc2ccccc2)c(-c2ccccc2O)nn1-c1ccccc1
- IC50 (MCF7 [1]): 3.5 µM
- IC50 (K562): 3.5 µM

SMILES: O=c1nc(NCCCCCCNc2nc(=O)n(-c3ccccc3)nc2-c2c(O)ccc3ccccc23)c(-c2c(O)ccc3ccccc23)nn1-c1ccccc1
- IC50 (MCF7 [1]): 3.5 µM
- IC50 (K562): 3.5 µM

SMILES: NNc1nc(=O)n(-c2ccccc2)nc1-c1ccccc1O
- IC50 (MCF7 [1]): 3.5 µM
- IC50 (K562): 3.5 µM

SMILES: O=c1nc(NCCCCCN(CCCNc2nc(=O)n(-c3ccccc3)nc2-c2ccccc2O)c2nc(=O)n(-c3ccccc3)nc2-c2ccccc2O)c(-c2ccccc2O)nn1-c1ccccc1
- IC50 (MCF7 [1]): 3.5 µM
- IC50 (K562): 3.5 µM

SMILES: NCCNc1nc(=O)n(-c2ccccc2)nc1-c1ccccc1O
- IC50 (MCF7 [1]): 3.5 µM
- IC50 (K562): 3.5 µM

SMILES: Oc1ccccc1-n1nc(-c2cc(O)c(O)c(O)c2)c2nc(-c3ccccc3)nnc21
- IC50 [6]: 15.1 µM

SMILES: O=c1nc(NNc2ccccc2)c(-c2ccccc2O)nn1-c1ccccc1
- IC50 (MCF7 [1]): 3.5 µM
- IC50 (K562): 3.5 µM

SMILES: COc1cc(-c2csc3nnc(-c4ccc(Cl)cc4)nc23)cc(OC)c1OC
- IC50 (MCF7 [5]): 0.74 µg/mL (≈ 1.79 µM)
- IC50 (HCT-116): 0.74 µg/mL

SMILES: NC(=O)NNc1nc(=O)n(-c2ccccc2)nc1-c1ccccc1O
- IC50 (MCF7 [1]): 3.5 µM
- IC50 (K562): 3.5 µM

SMILES: CN1CCN(CC(=O)Nc2cc(C(=O)Nc3ncc(-c4ccccc4)nn3)ccc2OC(F)(F)F)CC1
- IC50 (HCT-116): 0.016 µM

Other lines, results leading:

- IC50 [2]: 9.75 µM
SMILES: Cc1n[nH]c(=S)n(-c2nnc(-c3ccc(F)cc3)c(-c3ccc(F)cc3)n2)c1=O

- IC50 [3]: ≤ 0.01 µM
- IC50 [4]: ≤ 0.01 µM
SMILES: CC(Nc1cnnc(-c2c[nH]c3ncc(C#N)cc23)n1)C(=O)NCC(C)(C)C (stereo not drawn)

- IC50 [2]: 3.8 µM
SMILES: Nc1ccc(F)cc1C1=NNC(Nc2ccc(F)cc2)NC1=O (stereo not drawn)

- IC50 [2]: 5 µM
SMILES: CNc1ccc(F)cc1C1=NNC(SC)NC1=O (stereo not drawn)

- IC50 [2]: 3.8 µM
SMILES: CSC1NN=C(c2cc(F)ccc2NC(=O)c2ccc(F)cc2)C(=O)N1 (stereo not drawn)

- IC50 [3]: ≤ 0.01 µM
- IC50 [4]: ≤ 0.01 µM
SMILES: CC(C)(C)CNC(=O)C(C)(C)Nc1cnnc(-c2c[nH]c3ncc(C(N)=O)cc23)n1

- IC50 [6]: 5.2 µM
SMILES: Oc1cccc(-n2nc(-c3cc(O)c(O)c(O)c3)c3nc(-c4ccccc4)nnc32)c1

- IC50 [2]: 3.8 µM
SMILES: O=C1NC(SSC2NN=C(c3cc(F)ccc3NC(=O)c3ccc(F)cc3)C(=O)N2)NN=C1c1cc(F)ccc1NC(=O)c1ccc(F)cc1 (stereo not drawn)

- IC50 [2]: 3.8 µM
SMILES: Nc1ccc(F)cc1C1=NNC(S)NC1=O (stereo not drawn)

- IC50 [2]: 11.2 µM
SMILES: NNC(=S)Nc1nnc(-c2ccc(F)cc2)c(-c2ccc(F)cc2)n1

- IC50 [2]: 9.99 µM
SMILES: Fc1ccc(-c2nnc(-n3c(=S)[nH][nH]c3=S)nc2-c2ccc(F)cc2)cc1

- IC50 [3]: ≤ 0.01 µM
- IC50 [4]: ≤ 0.01 µM
SMILES: CC(C)C(Nc1cnnc(-c2c[nH]c3ncc(C#N)cc23)n1)C(=O)NCC(C)(C)C (stereo not drawn)

- IC50 [2]: 10.9 µM
SMILES: Fc1ccc(-c2nnc(-n3cn[nH]c3=S)nc2-c2ccc(F)cc2)cc1

- IC50 [3]: ≤ 0.01 µM
- IC50 [4]: ≤ 0.01 µM
SMILES: COc1cnc2[nH]cc(-c3nncc(NC(C(=O)NCC(C)(C)C)C(C)C)n3)c2c1 (stereo not drawn)

- IC50 [6]: 4.5 µM
SMILES: COc1cc(-c2nnc3c(n2)c(-c2cc(O)c(O)c(O)c2)nn3-c2cc(OC)c(OC)c(OC)c2)cc(OC)c1OC

- IC50 [3]: ≤ 0.01 µM
- IC50 [4]: ≤ 0.01 µM
SMILES: CC(Nc1cnnc(-c2c[nH]c3ncc(C(N)=O)cc23)n1)C(=O)NCC(C)(C)C (stereo not drawn)

From ChEMBL document CHEMBL5260813, “An overview on the recent developments of 1,2,4-triazine derivatives as anticancer compounds” (Eur J Med Chem, 2017)
